Here are results for 65 compounds from a melting point compilation (Tetko et al.; mined from patent text by program, amines drawn as free bases though some values may be those of a salt).

On to `C=C(Cl)C[C@@H](CC(=O)N(CC(=O)N(C)CCc1ccccn1)CC1CCCCC1)C(=O)N[C@@H](CC1CCCCC1)[C@@H](O)[C@@H](O)CC(C)C`, for which the melting point (in general, the temperature, or range, at which the solid turns liquid) was found to be 140 °C.
`CCCc1c(O)c(C(C)=O)cc(Cl)c1OCCOCCOc1c(C(C)=O)ccc(OCC(=O)O)c1CCC` had a melting point of 89 to 91 °C.
Turning to `COC(=O)CCc1ccc(C(=O)O)cc1[N+](=O)[O-]`, the melting point was in the range of 120 to 122 °C.
Under `CC1=CC(OC(=O)C=Cc2ccc(N)cc2)C(O)C(C)(C)CC1=O` (stereo not given) stands 72 to 74 °C.
`Clc1ccc2c(Nc3ccc(N4CCOCC4)c(CN4CCCC4)c3)ccnc2c1` had a melting point of 187 to 188 °C.
As to `Cc1cc(NC2=NCCN2)n(-c2ccc(F)cc2)n1`, the melting point fell in the range of 213 to 215 °C.
In the case of `CC(C)=NNc1cnn(-c2cccc(C(F)(F)F)c2)c(=O)c1` it was 255 to 257 °C; in that of `O=C(Nc1cccc([N+](=O)[O-])c1)C(=O)N1CCC(Cc2ccccc2)CC1`, 138 to 140 °C; in that of `CC#CCOc1cc(Oc2ccc(Cl)cc2F)ncn1`, 118 °C.
Take `Nc1ccccc1-c1nc2ccccc2o1`: the melting point lay in the range of 104 to 107 °C.
In the case of `CC(C)C1Cc2cc(OCC(=O)O)c(Cl)c(Cl)c2C1=O` (stereo not given) it was 161 to 164 °C.
With `O=c1cc(N2CCOCC2)cc(-c2ccc(Cl)cc2)o1`, the melting point lay within 236 to 237 °C.
With `Cc1c(Cl)cc(Cl)cc1Br`, the melting point was 84 to 85 °C.
Compound `Cc1cccc(C)c1NC(=O)CN1CCN(Cc2ccccc2)CC1C(C)O` (stereo not given) returned a melting point of 149 °C.
Under `CN(CC1(c2ccccc2)CC(O)=CC(=O)O1)c1ccccc1` (stereo not given) stands 118 to 120 °C.
The compound `Cc1sc(N)c(C(=O)c2cccs2)c1C` showed a melting point of 117 to 118 °C.
Consider `NN1CCC2(CC1)OC(c1ccccc1)c1ccccc12` (stereo not given), for which the melting point was 143 to 145 °C.
In turn, `CC1CCN(C(=O)C(C)Oc2ccc(Oc3ccc(C(F)(F)F)cn3)cc2)O1` (stereo not given) showed a melting point of 94 to 97 °C.
Consider `N#Cc1cc2c(c(C(=O)O)c1)NCCC2`, for which the melting point came to 238 °C.
Compound `COc1ccc(CCNc2nc(Cl)ccc2N)cc1OC` yielded a melting point of 90 to 91 °C.
Consider `O=[N+]([O-])c1cccc(-c2cc(Cc3ccc(F)cc3)cc(/C=N/O)c2O)c1`, for which the melting point fell in the range of 157 to 159 °C.
In the case of `CCCc1nc2c(N)nc3ccccc3c2n1CCCC(=O)CC(C)C`, the melting point lay within 136 to 138 °C.
Compound `CC(=O)Nc1ccc(/C=C/C(=O)/C=C/c2ccc(NC(C)=O)cc2)cc1` registered a melting point of 253 to 255 °C.
As to `Cc1ccc(C(=O)N2CCN(CCc3ccc(Cl)cc3)CC2)cc1`, the melting point lay within 105 to 106 °C.
As for `COCCc1nc2c(N)nc3ccccc3c2n1CCOCCNC(=O)Nc1ccccc1`, the melting point lay within 171 to 174 °C.
In the case of `CCCCn1c(CO)nc2c(N)nc3ccccc3c21`, the melting point fell in the range of 223 to 225 °C.
Under `Cc1cc2c(=O)c(Cc3cccnc3)cn3c4ccc(Br)cc4c(c1)c23` stands 202 to 204 °C; under `CSc1ccc2c(c1)C(Cl)c1ccccc1C=C2` (stereo not given), 135 to 138 °C; under `CC(C)(C)OC(=O)N1CCc2snc(O)c2C1`, 174 to 177 °C.
Consider `CON(C)C(=O)NC(CSC(C)=O)Cc1ccccc1` (stereo not given), for which the melting point fell in the range of 68 to 70 °C.
As for `CN1CCN(c2ccc3cc(Cl)ccc3n2)CC1`, the melting point lay in the range of 141 to 142 °C.
`CCC(O)(C(=O)NC(C)c1ccccc1)c1cc2n(c(=O)c1CO)CCC21OCCO1` (stereo not given) yielded a melting point of 115 to 116 °C.
`CCOC(=O)c1c(Cn2cncn2)nc2sc3ccncc3c2c1-c1ccc(OC)c(OC)c1` gave a melting point of 166 to 167 °C.
Under `c1ccc2c(c1)SSSSS2` stands 56 to 58 °C.
Consider `Cn1cccc(C(=O)Nc2ccc3c(c2)NC(=O)/C3=C\c2ccc[nH]2)c1=O`, for which the melting point is > 300 °C.
The compound `CCOc1ccc(OCc2cccc(OCc3nc(-c4ccccc4)oc3C)c2)cc1CCC(=O)O` displayed a melting point of 136 to 137 °C.
Take `Cc1ccccc1C1C(C#N)=C(c2ccccc2)Nc2n[nH]cc21` (stereo not given): the melting point was 246 °C.
Regarding `O=C(c1ccc2c(c1)C(=O)N1CCC[C@H]1CO2)N1CCOCC1`, the melting point lay within 158 to 161 °C.
In the case of `CCC(=O)c1cc(CC)c(O)cc1O` it was 74 to 75 °C; in that of `CC(C)CCc1c(C(C)C)nc(C(C)C)c(CO)c1-c1ccc(F)cc1`, 43 to 45 °C; in that of `COc1ccc2c(c1)CCC(c1ccccc1)=C2c1ccc(O)cc1`, 158 to 162 °C.
The compound `O=C1C(c2c[nH]c3ncccc23)=C(c2cn(S(=O)(=O)c3ccccc3)c3ccccc23)C(=O)N1COCc1ccccc1` came in with a melting point of 94 to 96 °C.
The compound `Cc1c(C)c(S(=O)(=O)C[N+](=O)[O-])c(C)c2c1OCCC2` had a melting point of 104 to 106 °C.
Regarding `CCCCn1cnc2c(OC)nc(Nc3ccc(OCC)nc3)nc21`, the melting point is 174 to 176 °C.
Regarding `CS(=O)(=O)c1ccc(-c2nc3cc(OC(=O)N4CCCCC4)ccc3s2)c(F)c1`, the melting point fell in the range of 173 to 178 °C.
`Nc1ccn(/C=C2/CC2(CO)CO)c(=O)n1` registered a melting point of 250 to 253 °C.
Turning to `CON=C(C(=O)O)c1csnn1`, the melting point fell in the range of 110 to 113 °C.
In the case of `C[Si](C)(CCO)Cc1ccccc1` it was 132 to 133 °C; in that of `O=C(O)c1cn(-c2cccc(Br)c2)cn1`, 205 to 207 °C.
`CSc1nc(OCC2COC(C)(C)O2)c2c(-c3ccccc3Cl)n[nH]c2n1` (stereo not given): the melting point lay within 120 to 122 °C.
In the case of `CNC(=O)n1ncc2ccc(NC(=O)/C=C/c3ccc(C(C)(C)C)cc3)cc21` it was 208 to 209 °C.
For `CCN(CC)C(=O)Cc1nn(-c2ccccc2)c(=O)c2c1c1ccc(Cl)cc1n2C`, the melting point was in the range of 167 to 168 °C.
For `N#CCCn1nc(-c2ccc(OCc3ccccc3)cc2)oc1=O`, the melting point turned out to be 136 °C.
In the case of `O=C(NP(=O)(O)CCc1ccccc1)OCc1ccccc1` it was 110 °C; in that of `Cc1cc2c(cc1C#Cc1ccccc1)NC(=O)CC(c1cccc(-c3nccn3C)c1)=N2`, 202 to 205 °C.
The compound `CCN(CC)C(=O)n1ccc(Sc2ccc(Cl)cc2Cl)n1` had a melting point of 96 to 97 °C.
With `CS(=O)(=O)NCC(=O)N1CCC(C2c3ncc(Br)cc3CCc3cc(Cl)cc(Cl)c32)CC1` (single isomer, unassigned; (+)), the melting point is 120 to 140 °C.
`COc1ccc(C2=NN(c3ccc(C(=O)Nc4ccc(-c5ccc(=O)[nH]n5)cc4)cc3)C(=O)[C@H]3CC=CC[C@@H]23)cc1OC` (relative stereo) came in with a melting point of 272 to 273 °C.
In the case of `COc1cnc(CO)c(C)c1OC` it was 91 to 92 °C; in that of `CC(=O)c1cnc([N+](=O)[O-])n1C`, 81 to 83 °C.
In turn, `CC#Cc1ccc(NC(=O)c2cccnc2Cl)cc1` showed a melting point of 136 to 138 °C.
`CCOC(=O)c1cc([N+](=O)[O-])ccc1F` registered a melting point of 53 to 54 °C.
Turning to `Cc1cc(C)cc(Oc2ccc(-n3ccnc3)nn2)c1`, the melting point came out at 170 °C.
Consider `Cc1ccc(Sc2ccc(N)cc2)cc1`, for which the melting point was 76 °C.
Under `CC1(C)[C@H](/C=C/Cl)[C@@H]1C(=O)O` (relative stereo) stands 103 to 105 °C.
